According to PMC4281220, “Antibacterial Activity of Novel Cationic Peptides against Clinical Isolates of Multi-Drug Resistant Staphylococcus pseudintermedius from Infected Dogs” (PLoS ONE, 2014):
Converted amounts (≈) assume the structure as drawn. Like-named read-outs stand apart in the source and are kept apart here. Non-standard residues stand in square brackets, D forms with d. Residues, ends and D or L forms follow the SMILES beside them.

Experiments:
[1] = test system: Staphylococcus pseudintermedius (SP3); assay type: cell-based
Procedure: The synergistic effect between peptides and antimicrobial agents was determined by the combination assay as described previously. Peptide MICs against SP3 were determined in triplicate. […] Additive was defined as an FIC index of 1. Antagonism was defined as an FIC index of >4.

[2] = test system: mammalian cells (J774A.1 and HaCat); test: Cytotoxicity, MTS assay, statement for both cell lines; conditions: 24 hours
Procedure: Peptides were assayed at different concentrations against macrophage-like cell line (J774A.1) and human keratinocyte (HaCat) to determine the potential toxic effect in vitro. […] Untreated cells were used as a negative control. […] After incubation, the cells were washed three times with PBS and the media in each well were replaced with 100 µL of DMEM media and 20 µL of assay reagent, MTS 3-(4,5-dimethylthiazol-2-yl)-5-(3-carboxymethoxyphenyl)-2-(4-sulfophenyl)-2H-tetrazolium) (Promega, Madison, WI, USA). The cells were incubated further for 4 h at 37°C. Corrected absorbance readings (actual absorbance readings for each treatment subtracted from background absorbance) were taken using a kinetic ELISA microplate reader (Molecular Devices, Sunnyvale, CA, USA). Cell viability was expressed as percentage of absorbance in comparison to negative control, untreated cells.
Cytotoxicity data were subjected to statistical analysis using GraphPad Prism 6.0 (GraphPad Software, La Jolla, CA). Cytotoxicity data were analyzed using one-way ANOVA, with post hoc Tukey's multiple comparisons test. P-values of <0.01 were considered significant.

SP3 [3] = test: Growth kinetics (culture turbidity, OD600); assay type: cell-based, Staphylococcus pseudintermedius; conditions: SP3, 5 X MIC, MHB, OD600, within the same time frame (7 hours)
Procedure: The turbidity of bacterial culture after exposure to peptides was measured as described previously. Briefly, logarithmic growth of SP 3 was diluted in MHB to reach OD600≈0.25. One mL of diluted bacteria was added to a plastic cuvette (light path 1 cm). Peptides and antibiotics were added to cuvettes at a concentration equivalent to 5 X MIC as determined in antibacterial assays above. Cuvettes were incubated aerobically at 37°C. At specific time points, OD was measured at 600 nm wavelength by spectrophotometer. Cuvettes containing MHB without bacteria and with the same concentrations of peptide or antibiotic served as blanks. Nisin at 5 X MIC and untreated bacteria were used as positive and negative controls, respectively. The assay was repeated twice and the average was reported.

MRSP (SP3) = test: Time kill assay; assay type: cell-based, Staphylococcus pseudintermedius; conditions: SP3, 5X MIC, MHB
Procedure: One strain of MRSP (SP3) was grown overnight in MHB, then diluted in fresh MHB and incubated for 2 hr until logarithmic growth phase was achieved. Then bacteria were centrifuged and washed twice with phosphate buffered saline (PBS) and adjusted to ∼5×10^5 CFU/ml in MHB. […] Aliquots at specified time points were taken, serially diluted in PBS and plated in triplicate on MHA. CFUs were counted after incubation of plates for 24 hr at 37°C.

[4] = test system: S. pseudintermedius (SP6); assay type: cell-based, Staphylococcus pseudintermedius; conditions: SP6, serial passages at 1/2 X MIC
Source text: Results were expressed as the ratio of MIC value after each passage compared to the initial MIC value.

[5] = test system: macrophage-like cell line (J774A.1); test: Cytotoxicity, MTS assay, J774A.1; assay type: cell-based
[6] = test system: S. pseudintermedius strains; assay type: cell-based, Staphylococcus pseudintermedius; conditions: for GM MIC S. pseudintermedius: 24 h
Procedure: The broth microdilution technique was used to determine the minimum inhibitory concentrations (MIC) of peptides and antibiotics in MHB in accordance with the Clinical and Laboratory Standards Institute (CLSI) guidelines. Peptides were dissolved in sterile distilled water containing 0.02% acetic acid. MIC assays were carried out with an initial bacterial inoculum of 5×10^5 colony forming unit (CFU/ml). Peptides and antibiotics were added to Polystyrene 96 well plates (CytoOne, CC7672-7596) at desired concentrations and plates were incubated for 24 hr at 37°C. MIC was defined as the lowest concentration of peptide which inhibited the visible growth of bacteria. MIC was done in triplicates and the highest value was reported.
(§1) Untreated cells were used as a negative control.

[7] = test system: human keratinocyte (HaCat); test: Cytotoxicity, MTS assay, HaCat; assay type: cell-based; conditions: for IC50: 24 h
Source text: as §1

[8] = test system: methicillin resistant Staphylococcus pseudintermedius (MRSP) strains
Procedure: (§2) Forty isolates of S. pseudintermedius (30 MSSP and 10 MRSP) identified at the Indiana Animal Disease Diagnostic laboratory from specimens collected from dogs admitted to the small animal teaching hospital at Purdue University were included in the study (Tables 2 and 3). […] Vitek identification of S. pseudintermedius was confirmed by a positive coagulase test. Antimicrobial susceptibility was determined by broth microdilution using the SensiTitre (Trek).
(§3) The broth microdilution technique was used to determine the minimum inhibitory concentrations (MIC) of peptides and antibiotics in MHB in accordance with the Clinical and Laboratory Standards Institute (CLSI) guidelines. Peptides were dissolved in sterile distilled water containing 0.02% acetic acid. […] MIC was defined as the lowest concentration of peptide which inhibited the visible growth of bacteria. MIC was done in triplicates and the highest value was reported.

[9] = test system: methicillin sensitive Staphylococcus pseudintermedius (MSSP) strains
Procedure: as §2, §3

SP3 [10] = test: Bacterial membrane permeability (propidium iodide fluorescence); assay type: cell-based, Staphylococcus pseudintermedius; conditions: SP3, 5X MIC, 10 µM propidium iodide, 30 minutes; in comparison to (KFF)3K, WR-12 and penetratin
Procedure: Bacterial membrane damage was assessed by fluorescence change of propidium iodide dye as described previously. Briefly, SP3 was grown in MHB to logarithmic phase of growth then diluted to OD600≈0.25. Propidium iodide was mixed with bacteria to a final concentration of 10 µM. […] The percentage of membrane permeabilization was calculated as the percent of fluorescent intensity of peptide-treated samples with respect to fluorescence intensity of propidium iodide-loaded, peptide untreated samples.

[11] = test system: mammalian or microbial proteases; conditions: effect of the D-amino acids substitution; cited from earlier work
Source text: WR-12 is a broad-spectrum AMP and consists exclusively of arginine and tryptophan, arranged to form idealized amphipathic helices. […] Additionally, the D-amino acids ...

[12] = compound serially diluted in the presence of (KFF)3K fixed at one-quarter of its MIC
[13] = compound serially diluted in the presence of IK8 “D isoform” fixed at one-quarter of its MIC
[14] = compound serially diluted in the presence of Penetratin fixed at one-quarter of its MIC
[15] = compound serially diluted in the presence of RR fixed at one-quarter of its MIC
[16] = compound serially diluted in the presence of RRIKA fixed at one-quarter of its MIC
[17] = compound serially diluted in the presence of WR-12 fixed at one-quarter of its MIC

CNC(C)C1CCC(N)C(OC2C(N)CC(N)C(OC3OCC(C)(O)C(NC)C3O)C2O)O1 (stereo not shown) [Gentamicin]
FIC index [1, 12]: 0.26 | FIC index [1, 13]: 1 | FIC index [1, 14]: 1 | FIC index [1, 15]: 0.75 | FIC index [1, 16]: 1 | FIC index [1, 17]: 0.75

CC[C@H](C)[C@H](NC(=O)[C@H](CCCNC(=N)N)NC(=O)[C@H](CCCNC(=N)N)NC(=O)[C@H](CC(C)C)NC(=O)[C@@H](N)Cc1c[nH]c2ccccc12)C(=O)N[C@@H](CCCCN)C(=O)N[C@@H](C)C(=O)N[C@@H](Cc1c[nH]c2ccccc12)C(=O)N[C@@H](CC(C)C)C(=O)N[C@@H](CCCNC(=N)N)C(=O)N[C@@H](CCCNC(=N)N)C(=O)O [RR] (H-WLRRIKAWLRR-OH)
concentration up to which not toxic to mammalian cells [2]: up to 64 µM

O=C(O)c1cn(C2CC2)c2cc(N3CCNCC3)c(F)cc2c1=O [Ciprofloxacin, ciprofloxacin]
effect on culture turbidity (SP3 [3]): did not reduce the culture turbidity

NCC[C@H](O)C(=O)N[C@@H]1C[C@H](N)[C@@H](O[C@H]2O[C@H](CN)[C@@H](O)[C@H](O)[C@H]2O)[C@H](O)[C@H]1O[C@H]1O[C@H](CO)[C@@H](O)[C@H](N)[C@H]1O [Amikacin, amikacin hydrate]
log10 reduction after 12 hours incubation (MRSP (SP3)): 3 log10 | log10 reduction within 3 hours (MRSP (SP3); 37°C): less than one log10 reduction | time after which bactericidal activity was demonstrated (MRSP (SP3); data not shown): 12 h | FIC index [1, 12]: 0.37 | FIC index [1, 13]: 0.75 | FIC index [1, 14]: 0.75 | FIC index [1, 15]: 0.75 | FIC index [1, 16]: 1 | FIC index [1, 17]: 1 | effect on culture turbidity (SP3 [3]): did not reduce the culture turbidity | passage at which shift (doubling) of the MIC began [4]: 4 passage | fold increase in the MIC by passage 10 ([4]; ratio to the initial MIC): 32 fold

CC[C@H](C)[C@H](NC(=O)CN)C(=O)NCC(=O)N[C@@H](C)C(=O)N[C@H](C(=O)N[C@@H](CC(C)C)C(=O)N[C@@H](CCCCN)C(=O)N[C@H](C(=O)N[C@@H](CC(C)C)C(=O)N[C@H](C(=O)N[C@H](C(=O)NCC(=O)N[C@@H](CC(C)C)C(=O)N1CCC[C@H]1C(=O)N[C@@H](C)C(=O)N[C@@H](CC(C)C)C(=O)N[C@H](C(=O)N[C@@H](CO)C(=O)N[C@@H](Cc1c[nH]c2ccccc12)C(=O)N[C@H](C(=O)N[C@@H](CCCCN)C(=O)N[C@@H](CCCNC(=N)N)C(=O)N[C@@H](CCCCN)C(=O)N[C@@H](CCCNC(=N)N)C(=O)N[C@@H](CCC(N)=O)C(=O)N[C@@H](CCC(N)=O)C(N)=O)[C@@H](C)CC)[C@@H](C)CC)[C@@H](C)O)[C@@H](C)O)C(C)C)C(C)C [Melittin, melittin, reference compound]
IC50 ([5]; MTS assay, 24 hours treatment, 8 to 256 µM, DMEM 10% FBS, concentration that inhibits 50% of cells, read-out: IC50 J774A.1): 2 µM | concentration toxic to J774A.1 ([5]; MTS assay, positive control, 24 hours, P<0.01): 5 µM | MIC ([6]; MIC of the melittin, strain not stated): 5 µM

NCCCC[C@H](NC(=O)[C@H](Cc1ccccc1)NC(=O)[C@H](Cc1ccccc1)NC(=O)[C@H](CCCCN)NC(=O)[C@H](Cc1ccccc1)NC(=O)[C@H](Cc1ccccc1)NC(=O)[C@H](CCCCN)NC(=O)[C@H](Cc1ccccc1)NC(=O)[C@H](Cc1ccccc1)NC(=O)[C@@H](N)CCCCN)C(N)=O [(KFF)3K] (H-KFFKFFKFFK-NH2)
IC50 ([5]; 24 h): 256 µM | TI (Therapeutic index) J774A.1 ([5]; 24 h): 33/>33 | IC50 [7]: > 256 µM | MIC50 [8]: 4 µM (≈ 5.65 µg/mL) | MIC90 [8]: 8 µM (≈ 11.3 µg/mL) | MIC50 [9]: 8 µM (≈ 11.3 µg/mL) | MIC90 [9]: 16 µM (≈ 22.6 µg/mL) | GM MIC S. pseudintermedius [6]: 7.75 µM

Nisin
membrane perturbation, propidium iodide fluorescence (comparison in words) (SP3 [10]): faster and more potent at membrane perturbation

CC[C@H](C)[C@H](NC(=O)[C@H](CCCNC(=N)N)NC(=O)[C@H](CCCNC(=N)N)NC(=O)[C@H](CC(C)C)NC(=O)[C@H](Cc1c[nH]c2ccccc12)NC(=O)[C@H](C)NC(=O)[C@H](CCCCN)NC(=O)[C@@H](NC(=O)[C@H](CCCNC(=N)N)NC(=O)[C@H](CCCNC(=N)N)NC(=O)[C@H](CC(C)C)NC(=O)[C@@H](N)Cc1c[nH]c2ccccc12)[C@@H](C)CC)C(=O)N[C@@H](CCCCN)C(=O)N[C@@H](C)C(=O)O [RRIKA]
IC50 ([5]; 24 h): 64 µM | TI (Therapeutic index) J774A.1 ([5]; 24 h): 55.6 | IC50 [7]: 128 µM | TI (Therapeutic index) HaCat ([7]; ratio of the IC50 over the geometric mean MIC value): 111.2 | MIC50 [8]: 1 µM (≈ 1.87 µg/mL) | MIC90 [8]: 1 µM (≈ 1.87 µg/mL) | MIC50 [9]: 1 µM (≈ 1.87 µg/mL) | MIC90 [9]: 2 µM (≈ 3.73 µg/mL) | GM MIC S. pseudintermedius [6]: 1.15 µM

CC[C@@H](C)[C@@H](N)C(=O)N[C@H](CCCNC(=N)N)C(=O)N[C@@H](C(=O)N[C@H](CCCCN)C(=O)N[C@@H](C(=O)N[C@H](CCCNC(=N)N)C(=O)N[C@@H](C(=O)N[C@H](CCCCN)C(=O)O)[C@H](C)CC)[C@H](C)CC)[C@H](C)CC [IK8 “D isoform”] (H-[dI][dR][dI][dK][dI][dR][dI][dK]-OH)
IC50 ([5]; 24 h): > 256 µM | TI (Therapeutic index) J774A.1 ([5]; 24 h): >51.2/>51.2 | IC50 [7]: > 256 µM | MIC50 [8]: 4 µM (≈ 4.16 µg/mL) | MIC90 [8]: 4 µM (≈ 4.16 µg/mL) | MIC50 [9]: 4 µM (≈ 4.16 µg/mL) | MIC90 [9]: 8 µM (≈ 8.32 µg/mL) | GM MIC S. pseudintermedius [6]: 5 µM | proteolytic degradation by mammalian or microbial proteases [11]: prevented proteolytic degradation

N=C(N)NCCC[C@H](NC(=O)[C@H](CCCNC(=N)N)NC(=O)[C@H](Cc1c[nH]c2ccccc12)NC(=O)[C@H](Cc1c[nH]c2ccccc12)NC(=O)[C@H](CCCNC(=N)N)NC(=O)[C@H](CCCNC(=N)N)NC(=O)[C@H](Cc1c[nH]c2ccccc12)NC(=O)[C@H](Cc1c[nH]c2ccccc12)NC(=O)[C@H](CCCNC(=N)N)NC(=O)[C@H](Cc1c[nH]c2ccccc12)NC(=O)[C@H](Cc1c[nH]c2ccccc12)NC(=O)[C@@H](N)CCCNC(=N)N)C(=O)O [WR-12] (H-RWWRWWRRWWRR-OH)
IC50 ([5]; 24 h): 128 µM | TI (Therapeutic index) J774A.1 ([5]; 24 h): 85.3/85.3 | IC50 [7]: 128 µM | MIC50 [8]: 0.5 µM (≈ 1.04 µg/mL) | MIC90 [8]: 2 µM (≈ 4.14 µg/mL) | MIC50 [9]: 1 µM (≈ 2.07 µg/mL) | MIC90 [9]: 2 µM (≈ 4.14 µg/mL) | GM MIC S. pseudintermedius [6]: 1.5 µM
